Data as given in patent US11691972B2, “Compounds for targeted degradation of BRD9” (C4 Therapeutics, Inc., priority 2020, dated 2023).

Experiments:
[1] = test system: synovial sarcoma xenograft model; assay: Tumor volume in a synovial sarcoma xenograft model (FIG. 1); assay type: in vivo
Plasma stability, mouse = assay type: in vitro ADME
Plasma stability, rat = assay type: in vitro ADME
PPB, rat = assay type: in vitro ADME; conditions: plasma
[2] = Hepatocyte stability, rat; assay type: in vitro ADME; conditions: rat hepatocytes; read-out: Hepatocyte stability, Clint scaled ws
[3] = Hepatocyte stability, human; assay type: in vitro ADME; conditions: human hepatocytes; read-out: Hepatocyte stability, Clint scaled ws
IV PK, mouse = assay type: in vivo; conditions: for IV PK AUC(0-last) / IV PK Cmax: dose-normalised; for clearance / Vd / half-life: in vivo; for clearance: read-out: IV PK CL; for Vd: read-out: IV PK Vdss; for half-life: read-out: IV PK t1/2 (converted)
IV PK, dog = assay type: in vivo
[4] = test system: Yamato (SS18-SSX fusion; BAF perturbed) cells; assay: Confluence perturbation (IncuCyte S3) in Yamato cells; assay type: cell-based; conditions: 10 nM to 10^4 nM, single dose, 20-day period; FIG. 4, 16, 17; SW982 cells also tested
Description: FIG. 4, FIG. 16, and FIG. 17 are line graphs illustrating the confluence caused by Compound 172 and Compound 176 at various concentrations. The x-axis is time measured in days and the y axis is confluence measured as a percentage of control. The compounds were incubated at 10 nM, 32 nM, 100 nM, 316 nM, 1000 nM, and 10^4 nM concentrations at a single dose. The compounds were tested in a Yamato (SS18-SSX fusion; BAF perturbed) cells and SW982 (BAF wildtype) cells.
Compound 172 was serially diluted in DMSO and 200 nL were dispensed into 96 well tissue-culture treated plates by the Echo acoustic liquid handler. Yamato cells were counted and adjusted to 11,000 cells/mL with DMEM media supplemented with 10% heat-inactivated FBS. 200 ul of the cell suspension was dispensed into each well. The plate was sealed with a gas-permeable membrane and confluence was measured in a temperature- and humidity-controlled incubator (37° C., 5% CO2) over a 20-day period at 6-hour intervals by the IncuCyte S3. […]
Compound 176 and a comparator BRD9 inhibitor were serially diluted in DMSO and 200 nL were dispensed into 96 well tissue-culture treated plates by the Echo acoustic liquid handler. Yamato cells were counted and adjusted to 11,000 cells/mL with DMEM media supplemented with 10% heat-inactivated FBS. […]

BRD9 = biological target: T1, BRD9 (Homo sapiens, UniProt Q9H8M2); assay: Western blot, in-vivo BRD9 degradation in Yamato-SS tumors; parameters: inoculated subcutaneously into BALB/c nude mice at the right flank for tumor development; from tissue; host or cells: Yamato-SS xenograft tumours in BALB/c nude mice; species or system BALB/c nude mice
T1 sequence (Q9H8M2 1-597): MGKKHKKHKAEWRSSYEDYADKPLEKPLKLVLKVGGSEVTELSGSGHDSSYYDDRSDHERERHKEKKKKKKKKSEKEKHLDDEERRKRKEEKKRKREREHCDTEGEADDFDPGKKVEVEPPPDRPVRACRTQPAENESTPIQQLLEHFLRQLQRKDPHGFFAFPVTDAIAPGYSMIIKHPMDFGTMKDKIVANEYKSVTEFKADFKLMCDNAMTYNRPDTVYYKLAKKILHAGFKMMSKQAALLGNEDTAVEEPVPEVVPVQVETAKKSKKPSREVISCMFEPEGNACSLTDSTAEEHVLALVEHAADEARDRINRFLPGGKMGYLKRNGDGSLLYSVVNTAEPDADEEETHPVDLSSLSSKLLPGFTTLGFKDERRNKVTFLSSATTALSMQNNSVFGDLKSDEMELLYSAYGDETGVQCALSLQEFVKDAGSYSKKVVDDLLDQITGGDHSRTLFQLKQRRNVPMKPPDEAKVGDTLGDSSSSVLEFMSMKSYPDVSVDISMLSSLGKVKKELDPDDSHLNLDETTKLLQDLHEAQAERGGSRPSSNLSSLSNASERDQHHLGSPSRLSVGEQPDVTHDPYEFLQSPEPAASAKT
Description: (§1) Yamato-SS cells were maintained in vitro until exponential growth phase and inoculated subcutaneously into BALB/c nude mice at the right flank for tumor development. Mice were treated with single dose of Compound 172 at 10 or 75 mg/kg PO. Tumor were collected at indicated time points and snap frozen until lysis. Tumors were ground and lysed in RIPA Buffer containing 2× protease/phosphatase inhibitor using a freeze grinder at 50 Hz for 5 minutes. Protein concentrations were determined by Pierce™ BCA Protein Assay Kit. Samples were diluted to appropriate concentrations and run in a western blot.
as §1, with “Yamato-SS” for “Yamato-SS cells”, “flank.” for “flank for tumor development.”, “176” for “172”, “3, 12” for “10”, “50” for “75”
FIG. 20 is a histogram reflecting quantitated bands from FIG. 19. The x axis is time measured in hours and the y axis is BRD9 remaining normalized to vehicle and vinculin measured in percentage.

Row | SMILES | tumor volume after treatment [1] | Stability (plasma) % remaining @3 hrs (Plasma stability, mouse) [%] | Stability (plasma) % remaining @3 hrs (Plasma stability, rat) [%] | fraction unbound (PPB, rat) | CLint scaled [2] [mL/min/kg] | CLint scaled [3] [mL/min/kg] | IV PK AUC(0-last) (IV PK, mouse) | IV PK Cmax (IV PK, mouse) | clearance (IV PK, mouse) [mL/min/kg] | Vd (IV PK, mouse) [L/kg] | half-life (IV PK, mouse) [h] | IV PK AUC(0-last) (IV PK, dog; dose-normalised) | IV PK Cmax (IV PK, dog; dose-normalised) | clearance (IV PK, dog; in vivo, read-out: IV PK CL) [mL/min/kg] | Vd (IV PK, dog; in vivo, read-out: IV PK Vdss) [L/kg] | half-life (IV PK, dog; in vivo, read-out: IV PK t1/2 (converted)) [h] | confluence as a percentage of control [4] | in-vivo BRD9 degradation, western blot (BRD9; single dose 10 or 75 mg/kg PO, FIG. 12, not BRD7) | in-vivo BRD9 degradation, western blot (BRD9; single dose 3, 12 or 50 mg/kg PO, 1, 4, 12, 24, 48 hr, FIG. 19)
1 | COc1cc(-c2cn(C)c(=O)c(C)c2C)cc(OC)c1CN1CCC(N2CCN(c3ccc(NC4CCC(=O)NC4=O)cc3F)CC2)C(F)(F)C1 (stereo not drawn) [Compound 172, 3-[4-[4-[1-[[2,6-dimethoxy-4-(1,4,5-trimethyl-6-oxo-3-pyridyl)phenyl]methyl]-3,3-difluoro-4-piperidyl]piperazin-1-yl]-3-fluoro-anilino]piperidine-2,6-dione] | strong effect | 90.3 | 97.0 | 0.083 | 15 | 9.4 | 4942 (h*ng/mL)/(mg/kg) | 1228 [ng/mL]/(mg/kg) | 3.4 | 1.1 | 3.6 | 2343 (h*ng/mL)/(mg/kg) | 767 [ng/mL]/(mg/kg) | 6.2 | 4.36 | 8.8 | A dose response is clearly visible | dose dependent in-vivo BRD9 degradation | 
2 | COc1cc(-c2cn(C)c(=O)c(C)c2C)cc(OC)c1CN1CCC(N2CCN(c3ccc(NC4CCC(=O)NC4=O)cc3F)CC2)C(F)(F)C1 (single isomer, unassigned) [Compound 176, 3-[4-[4-[1-[[2,6-dimethoxy-4-(1,4,5-trimethyl-6-oxo-3-pyridyl)phenyl]methyl]-3,3-difluoro-4-piperidyl]piperazin-1-yl]-3-fluoro-anilino]piperidine-2,6-dione] |  | 85 | 88 | 0.098 | 14.2 | 9.4 | 2724 (h*ng/mL)/(mg/kg) | 720 [ng/mL]/(mg/kg) | 6.2 | 2 | 3.7 |  |  |  |  |  | A dose response is clearly visible |  | time dependent in-vivo BRD9 degradation
